{
  "source": "paper PMC4790320",
  "about": "“Purification of a Multidrug Resistance Transporter for Crystallization Studies” (Antibiotics, 2015)",
  "target": "T1, MdtM (Escherichia coli, UniProt P39386)",
  "T1 construct": "full ORF in modified pBAD/Myc-His A, decaHis tag removed with thrombin; expressed in E. coli LMG194; IMAC with ATP wash to remove chaperonin, SEC in DDM; ~45 kDa; monomer",
  "T1 sequence (P39386 whole entry)": "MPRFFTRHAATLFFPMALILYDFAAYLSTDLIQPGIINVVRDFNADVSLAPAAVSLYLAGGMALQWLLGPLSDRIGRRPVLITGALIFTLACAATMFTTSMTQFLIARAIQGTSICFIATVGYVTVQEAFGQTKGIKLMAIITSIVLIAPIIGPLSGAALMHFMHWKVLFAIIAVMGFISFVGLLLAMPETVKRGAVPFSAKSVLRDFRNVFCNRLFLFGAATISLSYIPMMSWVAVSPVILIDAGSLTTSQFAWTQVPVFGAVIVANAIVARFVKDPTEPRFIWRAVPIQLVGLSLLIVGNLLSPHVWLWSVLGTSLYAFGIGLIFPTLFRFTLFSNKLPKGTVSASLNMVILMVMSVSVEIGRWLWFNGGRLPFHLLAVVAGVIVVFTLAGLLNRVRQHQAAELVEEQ",
  "experiment": "intrinsic tryptophan fluorescence quenching",
  "assay_type": "binding",
  "data": [
    {"compound": "O=C(N[C@H](CO)[C@H](O)c1ccc([N+](=O)[O-])cc1)C(Cl)Cl", "note": "[chloramphenicol]", "values": [
      {"measurement": "Kd", "result": "36 ± 3", "unit": "nM"}
    ]}
  ]
}
